Data published in US6828309B2, “Use of pentosan polysulfate to treat certain conditions of the prostate” (The United States of America as represented by the …, priority 2000, dated 2004).

Tests used:
[1] = biological target: T1, type II 5-alpha-reductase (Homo sapiens, UniProt P31213); conditions: Moore et al. 1995; cited from earlier work
T1 sequence (P31213 1-254): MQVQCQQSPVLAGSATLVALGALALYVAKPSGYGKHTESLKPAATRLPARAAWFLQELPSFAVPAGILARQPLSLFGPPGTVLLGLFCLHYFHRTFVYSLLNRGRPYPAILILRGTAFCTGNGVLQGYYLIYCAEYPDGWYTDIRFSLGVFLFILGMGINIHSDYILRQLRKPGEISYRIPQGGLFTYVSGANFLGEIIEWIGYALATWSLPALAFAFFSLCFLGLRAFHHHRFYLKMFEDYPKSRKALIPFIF

human prostate cells = test: Dose response / growth curves of prostatic smooth muscle cells in 20% FBS, cell counts by Coulter counter; assay type: cell-based
Description: Fragments from the nodular areas of prostatectomy specimens were obtained, cut into small pieces, and incubated in a collagenase solution (3 mg/ml) (Sigma Chemical Co., St. Louis, Mo.) overnight at 37° C. The following day, the digested fragments were resuspended in complete Waymouth's medium (Gibco) containing 20% fetal bovine serum (FBS), L-glutamine, penicillin (100 U/ml), streptomycin (100 μg/ml), and sodium bicarbonate. The digested fragments were then plated into 24-well plates (Nunc Nalge International, Naperville, Ill.) coated with human fibronectin (Collaborative Research). The fragments were left undisturbed in 95% […] and 5% CO2 until the first outgrowth was apparent (by day 7), at which time the cells appeared elongated and stellate and formed parallel arrays. The medium was changed twice a week until the cells reached confluence, at which time the cells were transferred into flasks. All experiments were performed on cells between passage 2 and 10, at which time the cells appeared to have a stable phenotype (i.e., monolayer growth with no morphological change and no hillock formation at confluence). Characterization was performed by staining for a smooth muscle cell actin (Sigma Chemical Co.) and F actin (Molecular Probes) in accordance with manufacturers' directions. All of the cells contained end to end actin filaments when stained with phalloidin. Such staining is characteristic of mesenchymal cells. Since the majority of the cells contained smooth muscle actin (see FIG. 1), the cells were considered to be smooth muscle cells
Dose response curves for the cells were generated by plating cells at 5,000 cells/well in 24-well plates (Nunc) in medium containing 20% FBS. After 36 hours, the medium was replaced with fresh 20% FBS containing medium and increasing concentrations of PPS (Elmiron®, Ivax Corp., Miami Fla.) were added. Cells were counted on days 1, 3 and 4 with a Coulter 7.1 cell counter (Coulter, Hialeah, Fla.). The addition of FBS stimulated cell proliferation. […] Cell number decreased 24 hours following treatment with PPS (10 or 100 μg/ml) (see FIG. 2). […]

MMP-2 = test: Zymography for metalloproteinases in medium of PPS-treated cells (MMP-2); assay type: cell-based, human; conditions: PPS 100 μg/μl daily for 5 days; densitometry
Description: (§1) Cells in medium containing 20% FBS were pipetted into 6-well plates and were left undisturbed for 24 hours. On day 0, fresh medium containing 20% serum, with and without PPS ([…]), was added PPS was added daily for 5 days. At day 4, the serum in the medium was reduced to 0.1% FBS so as to avoid interference with the assays. At the time of collection, the cellular supernatants were centrifuged to remove cellular debris. Cell layers from the same wells were used to determine cell number.
(§2) Briefly, medium was diluted with 0.1% FBS and 5× Laemmli buffer so that all samples corresponded to an identical cell number. Gelatinases (MMP-9 and MMP-2) in the medium were assayed using 10% zymogram gels (Novex, San Diego, Calif.). Following electrophoresis, the gels were washed for 1 hour in 2.5% SDS and incubated overnight in collagenase as described previously (Boyle et al., Urology 48: 398-405, 1996). The gels were stained with Coomassie Blue and air-dried. To check for non-specific bands, gels were incubated in 50 mM Tris buffer, with the addition of 25 mM EDTA. Quantitative densitometry was performed using NIH image 1.6. […] However MMP-9 increased 235.7+/−50.31 as compared to control cells (see FIG. 3) (p<001).

MMP-9 = test: Zymography for metalloproteinases in medium of PPS-treated cells (MMP-9); assay type: cell-based, human; conditions: PPS 100 μg/μl daily for 5 days; densitometry
Description: as §1, §2

TIMP-1 = test: Reverse zymography for tissue inhibitors of metalloproteinases (TIMP-1); assay type: cell-based, human; conditions: PPS-treated cells; densitometry
Description: (§3) Tissue inhibitors of metalloproteinases (TIMPS) in the supernatant and the cell layer were assessed by reverse zymography. Briefly, gels were prepared containing gelatinase A. Medium was diluted to normalize for cell number as described in Example 2. Gels were washed for 1 hour in 2.5% SDS following electrophoresis and incubated overnight at 37° C. Coomasie Blue staining and air drying was performed as described in Example 2. Densitometry was performed using NIH image 1.6 to quantitate the TIMPS activity.

TIMP-2 = test: Reverse zymography for tissue inhibitors of metalloproteinases (TIMP-2); assay type: cell-based, human; conditions: PPS-treated cells; barely detectable in the control medium
Description: as §3

type IV collagen = test: Collagen analysis, type IV collagen immunoassay; assay type: cell-based, human; conditions: PPS-treated vs untreated cells
Description: (§4) Another set of cells was plated as described in Example 2 and either treated with PPS or left untreated. The supernatant was centrifuged to remove cellular debris and transferred to a tube containing protease inhibitors (PMSF, NEM, EDTA) and frozen prior to assay.
Type IV collagen: The Assay was performed in a similar way, except the medium and standards were coated on the plate for 8 hours prior to blocking. The concentration of the antibody and the biotinylated goat anti-rabbit IgG was 1:2000. The SAAP was used at 1:1500.
(§5) Type I and type IV (Biodesign) collagen standards were diluted to a final concentration of 0.25-4 ng/well in 0.02 N acetic acid. The curves were linear (r=0.98).

type I collagen = test: Collagen analysis, type I collagen immunoassay; assay type: cell-based, human; conditions: PPS-treated vs untreated cells
Description: as §4
Type I collagen: 100 μl of medium or human collagen type I standard were incubated for 24 hours in a 96 well plate (Nunc). After 3 washes with 0.05% Tween/PBS, the wells were blocked with 1% BSA/PBS for an additional 24 hours. Following 4 washes with 0.05% Tween/PBS, 50 μl of human collagen type I antibody (1:1000) (Biodesiga, Kennebunk, Me.) was applied for 90 minutes. The plate was washed again and biotin-labeled goat anti-rabbit IgG (1:1000, Sigma) was applied for 1 hour. The wells were washed 4 more times and incubated with streptavidin […] (SAAP) at a 1:2500 concentration. P-nitrophenyl phosphate (pNPP, Sigma) was used for color development according to the manufacturer's directions. The plate was read in a Titertek Mulitskan plate reader at 405 nm.
as §5

[2] = patients treated for IC; Sand et al. 1997; cited from earlier work

Compound | Decrease in DHT [1] [%] | Prostate specific antigen [1] | Prostate volume reductions [1] [%] | Cell number (human prostate cells; 24 hours following treatment with PPS (10 or 100 μg/ml), 20% FBS) | Cell death, as assessed by trypan blue staining (human prostate cells; PPS 10 or 100 μg/ml) | Decrease in cell number (human prostate cells; day 4 of treatment with 100 μg/ml PPS) [fold] | MMP-2 levels, PPS-treated cells vs control cells (MMP-2) | MMP-9 increase as compared to control cells (MMP-9) | TIMP-1 levels increase as compared to control cells (TIMP-1) | TIMP-2 expression in the medium (TIMP-2) | Type IV collagen level (type IV collagen; cell layer) | Type IV collagen level (type IV collagen; medium) | Type I collagen level relative to untreated control (type I collagen; cell layer) | Type I collagen level relative to untreated control (type I collagen; medium) | Serious adverse effects (mainly gastrointestinal or alopecia) [2]
CC(C)(C)NC(=O)[C@H]1CC[C@H]2[C@@H]3CC[C@H]4NC(=O)C=C[C@]4(C)[C@H]3CC[C@]12C [finasteride] | 72 | reduction | 30 | – | – | – | – | – | – | – | – | – | – | – | –
pentosan polysulfate [PPS] | – | – | – | decreased | not associated with cell death | 3 | no significant differences | 235.7+/−50.31% of untreated control c | 203.5+/−50.31% of untreated control c | expressed at high levels | 52.99%+/−7.556 % of controls | 43.03%+/−4.029 % of controls | 66.91%+/−25.42 % of controls | 29.97%+/−3.692 % of controls | 3.2 % of chronic users
